Experimental data from patent publication US8501794B2, “Compounds as cannabinoid receptor ligands” (priority 2007, dated 2013).

Tests used:
rat CB2 [1] = target: T1, rat CB2 (Rattus norvegicus, UniProt Q9QZN9); assay: rat CB2 cyclase functional assay (HitHunter cAMP, HEK cells); type: cell-based; design: expressed in transfected cells; host or cells: HEK; conditions: forskolin 18 μM
T1 sequence (Q9QZN9 1-360): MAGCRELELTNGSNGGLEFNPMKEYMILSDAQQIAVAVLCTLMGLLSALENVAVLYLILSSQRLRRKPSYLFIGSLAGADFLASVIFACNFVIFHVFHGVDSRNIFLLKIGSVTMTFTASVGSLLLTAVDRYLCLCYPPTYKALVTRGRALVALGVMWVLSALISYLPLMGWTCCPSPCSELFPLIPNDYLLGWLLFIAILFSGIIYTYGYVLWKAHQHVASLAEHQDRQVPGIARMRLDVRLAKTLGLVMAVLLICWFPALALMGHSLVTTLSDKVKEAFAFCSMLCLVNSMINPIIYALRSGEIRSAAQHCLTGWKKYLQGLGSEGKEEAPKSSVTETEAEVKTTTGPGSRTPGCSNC

human CB2 receptors = target: T2, human CB2 receptors (Homo sapiens, UniProt P34972); assay: human CB2 radioligand binding assay ([3H]CP-55,940 competition)
T2 construct: expressed in transfected cells; host or cells: HEK293
T2 sequence (P34972 whole entry): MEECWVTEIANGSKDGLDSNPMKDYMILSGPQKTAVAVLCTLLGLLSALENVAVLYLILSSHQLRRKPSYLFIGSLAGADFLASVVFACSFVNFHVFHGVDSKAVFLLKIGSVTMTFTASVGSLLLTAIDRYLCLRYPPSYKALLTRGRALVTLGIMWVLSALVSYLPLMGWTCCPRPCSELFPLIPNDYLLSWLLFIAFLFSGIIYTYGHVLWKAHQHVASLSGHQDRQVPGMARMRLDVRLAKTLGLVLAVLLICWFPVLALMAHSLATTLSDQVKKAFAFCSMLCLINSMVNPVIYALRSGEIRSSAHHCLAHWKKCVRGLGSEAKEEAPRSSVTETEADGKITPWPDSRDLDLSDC

rat CB2 [2] = target: T1, rat CB2; assay: rat CB2 radioligand binding assay ([3H]CP-55,940 competition); design: expressed in transfected cells; host or cells: HEK293

Compound | EC50 (rat CB2 [1]) | Ki (human CB2 receptors) | Ki (rat CB2 [2])
COc1ccc(Cl)cc1C(=O)/N=c1\sn(C(C)(C)C)cc1CCC(C)=O [Example 84, N-[(5Z)-2-tert-butyl-4-(3-oxobutyl)isothiazol-5(2H)-ylidene]-5-chloro-2-methoxybenzamide] | 0.88 nM | 42 nM | 2.7 nM
CCCCc1cn(C(C)(C)C)s/c1=N\C(=O)C1(C)CCC(C(=O)N(C)C)C1(C)C (stereo not drawn) [Example 99, N^1-[(5Z)-4-butyl-2-tert-butylisothiazol-5(2H)-ylidene]-N^3,N^3,1,2,2-pentamethylcyclopentane-1,3-dicarboxamide] | 4.8 nM | 56 nM | 42 nM
CCCCc1cn(C(C)(C)C)s/c1=N\C(=O)[C@]1(C)CC[C@H](C2=NCCO2)C1(C)C [Example 217, (1R,3S)—N-[(5Z)-4-butyl-2-tert-butylisothiazol-5(2H)-ylidene]-3-(4,5-dihydro-1,3-oxazol-2-yl)-1,2,2-trimethylcyclopentanecarboxamide] | 0.16 nM | 0.7 nM | 0.73 nM
CCCCc1cn(C(C)(C)C)s/c1=N\C(=O)c1cc(C(C)(F)F)ccc1OC [Example 69, N-[(5Z)-4-butyl-2-tert-butylisothiazol-5(2H)-ylidene]-5-(1,1-difluoroethyl)-2-methoxybenzamide] | 0.043 nM | 18 nM | 1.6 nM
CCCCc1cn(C(C)(C)C)s/c1=N\C(=O)c1cc(C(F)F)ccc1OC [Example 65, N-[(5Z)-4-butyl-2-tert-butylisothiazol-5(2H)-ylidene]-5-(difluoromethyl)-2-methoxybenzamide] | 0.052 nM | 9.3 nM | 1.6 nM
CCCCc1cn(C(C)(C)C)s/c1=N\C(=O)c1cc(Cl)ccc1OCC(N)=O [Example 140, 2-(2-amino-2-oxoethoxy)-N-[(5Z)-4-butyl-2-tert-butylisothiazol-5(2H)-ylidene]-5-chlorobenzamide] | 0.15 nM | 11 nM | 3.9 nM
COc1ccc(Cl)cc1C(=O)/N=c1\sn(C(C)(C)C)cc1CCCC(F)(F)F [Example 142, N-[(5Z)-2-tert-butyl-4-(4,4,4-trifluorobutyl)isothiazol-5(2H)-ylidene]-5-chloro-2-methoxybenzamide] | 0.062 nM | 2.2 nM | 0.43 nM
